From US5208344A, “Naphthalenepropionic acid derivatives as anti-inflammatory/antiallergic agents” (American Home Products Corporation, priority 1991, dated 1993) come the findings set out here.

Structures can show the parent of a compound that is named as a salt. Bounds are passed on as bounds.

Holding throughout (assay type): cell-based
For assay [1], the target named is T1, 5-lipoxygenase (Homo sapiens, UniProt P09917).
T1 construct: Blood is obtained in 50-100 ml quantities from male donors; endogenous in cells; host or cells: human whole blood (leukocytes) from male donors
T1 sequence (P09917 1-674): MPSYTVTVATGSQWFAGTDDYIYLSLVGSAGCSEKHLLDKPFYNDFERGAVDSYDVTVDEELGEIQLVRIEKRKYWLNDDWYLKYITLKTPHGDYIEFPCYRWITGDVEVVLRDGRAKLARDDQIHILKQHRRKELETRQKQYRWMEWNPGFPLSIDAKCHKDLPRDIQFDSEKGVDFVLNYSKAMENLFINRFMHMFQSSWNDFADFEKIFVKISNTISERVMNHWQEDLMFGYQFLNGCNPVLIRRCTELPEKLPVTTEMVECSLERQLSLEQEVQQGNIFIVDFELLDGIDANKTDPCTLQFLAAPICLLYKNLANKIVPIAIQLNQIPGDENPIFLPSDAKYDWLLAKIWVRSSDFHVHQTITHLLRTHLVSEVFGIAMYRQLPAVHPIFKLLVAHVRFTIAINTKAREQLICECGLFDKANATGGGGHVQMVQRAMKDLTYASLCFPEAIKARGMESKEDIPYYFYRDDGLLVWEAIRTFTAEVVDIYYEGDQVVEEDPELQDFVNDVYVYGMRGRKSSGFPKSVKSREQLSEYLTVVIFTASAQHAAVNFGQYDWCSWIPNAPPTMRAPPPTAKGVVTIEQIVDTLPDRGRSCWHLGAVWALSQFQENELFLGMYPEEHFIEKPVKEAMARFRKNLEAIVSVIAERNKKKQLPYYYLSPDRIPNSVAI
Description: inhibition of 5-lipoxygenase in human whole blood (LTB4). As to the method: The assay of this Example measures the ability of the compounds tested to inhibit 5-lipxygenase in human whole blood.
Blood is obtained in 50-100 ml quantities from male donors. White blood cell counts and differentials are made. Two ml of blood are placed in a 15 ml polypropylene test tube. Compounds are solubilized in dimethylsulfoxide and diluted 1:10 in 10% bovine serum albumin in phosphate buffered saline, pH 7.4 resulting in a final dimethylsulfoxide concentration of 0.1% in the blood. Then, compounds are added to the blood in a shaking water bath at 37° C. for 10 minutes prior to the addition of 30 μM calcium ionophore (A23187; Sigma). After ionophore administration, whole blood samples are mixed and incubated for 20 minutes at 37° C. in a shaking water bath. Incubation is terminated by placing samples in an ice bath and immediately adding ethylene glycol-bis-(β-aminoethyl ether)-N,N,N',N'-tetraacetic acid (10 mM). Samples are mixed and centrifuged at 1200×g for 15 minutes at 4° C. Preparation of samples for evaluation by RIA or ELISA is carried out by the following protocol. Plasma is removed from sample tubes, placed in 15 ml polypropylene test tubes containing 8 ml methanol, and then vortexed to precipitate protein. Samples are stored at -70° C. overnight. The next day, samples are centrifuged at 200×g for 15 minutes at 4° C. to pellet the precipitate. Samples are dried in a Savant speed vac concentrator, reconstituted to original volume with ice cold RIA or ELISA buffer, and stored at -70° C. until assayed. The assay for eicosanoids (LTB4, TxB2, and PGE2) is performed as described by the manufacturer of the [^3 H]-RIA kit or ELISA kit (LTB4 -Amersham, TxB2 and PGE2 - Caymen Chemical).
The total eicosanoid level in 2 ml of blood is calculated and reported as ng/10^6 neutrophils. Significance is determined by a one-way analysis of variance with least significant difference (LSD) comparisons to control (p≤0.05) and IC50 's (μM) are determined by regression analysis (Finney, 1978). Drug effects are expressed as percent change form control values.
Compounds tested in vitro are solubilized in dimethylsulfoxide and diluted 1:10 in 10% bovine serum albumin in phosphate buffer saline resulting in a final dimethylsulfoxide concentration of 0.1% in the blood.

The test system of the next assay is cyclooxygenase. Description: inhibition of synthesis of cyclooxygenase products TxB2 and PGE2 (rat polymorphonuclear leukocytes). The settings on record: rat PMN; for % Inhibition of CO (as PGE2): 10 μM, negative = potentiation of PGE2 synthesis; for IC50: read-out: IC50 (inhibition of CO, as PGE2). As for the experimental part: (§1) Peritoneal PMN are obtained from female Wistar rats (150-250 g) that received an i.p. injection of 6% glycogen (10 ml). After 24 hours, rats are killed by CO2 asphysiation and peritoneal cells are harvested by peritoneal lavage using Ca^++ and MG^++ free Hanks' balanced salt solution (HBSS). The peritoneal exudate is centrifuged at 400 g for 10 minutes. After centrifugation, the lavaged fluid is removed and the cell pellet is resuspended in HBSS containing Ca^++ and MG^++ and 10 mM L-cysteine at a concentration of 2×10^7 cells/ml. To 1 ml portions of cell suspension, test drugs or vehicle are added and incubated at 37° C. for 10 minutes. Following this preincubation, the calcium ionophore (10 μM), a23187, is added together with 0.5 μM [14 C] arachidonic acid and further incubated for 10 minutes. The reaction is stopped by the addition of ice cold water (3 ml) and acidifying to pH 3.5. Lipoxygenase products are then extracted twice into diethyl ether. The pooled ether extracts are evaporated to dryness under nitrogen and the residue is redissolved in a small volume of methanol and spotted on aluminum backed pre-coated thin layer chromatographic plates. The samples are then cochromatographed with authentic reference 5-HETE in the solvent system - hexane: ether: acetic acid (50:50:3). After chromatography, the areas associated with 5-HETE standard are identified by autoradiography, cut out and quantitated by liquid scintillation.
However, in order to determine cyclooxygenase activity, the samples are cochromatographed with authentic reference TxB2 and PGE2 in the solvent system ethyl acetate: formic acid (80:1) and the upper phase of ethyl acetate: isooctane: acetic acid: water (110:50:20:100). After chromatography, the areas associated with the TxB2 and PGE2 standards are identified by autoradiography, cut out and quantitated by liquid scintillation techniques.

Assay [2] deals with T2, 5-lipoxygenase (Rattus norvegicus, UniProt P12527).
T2 construct: Peritoneal PMN are obtained from female Wistar rats (150-250 g); endogenous in cells; host or cells: rat glycogen-elicited peritoneal polymorphonuclear leukocytes, intact
T2 sequence (P12527 1-673): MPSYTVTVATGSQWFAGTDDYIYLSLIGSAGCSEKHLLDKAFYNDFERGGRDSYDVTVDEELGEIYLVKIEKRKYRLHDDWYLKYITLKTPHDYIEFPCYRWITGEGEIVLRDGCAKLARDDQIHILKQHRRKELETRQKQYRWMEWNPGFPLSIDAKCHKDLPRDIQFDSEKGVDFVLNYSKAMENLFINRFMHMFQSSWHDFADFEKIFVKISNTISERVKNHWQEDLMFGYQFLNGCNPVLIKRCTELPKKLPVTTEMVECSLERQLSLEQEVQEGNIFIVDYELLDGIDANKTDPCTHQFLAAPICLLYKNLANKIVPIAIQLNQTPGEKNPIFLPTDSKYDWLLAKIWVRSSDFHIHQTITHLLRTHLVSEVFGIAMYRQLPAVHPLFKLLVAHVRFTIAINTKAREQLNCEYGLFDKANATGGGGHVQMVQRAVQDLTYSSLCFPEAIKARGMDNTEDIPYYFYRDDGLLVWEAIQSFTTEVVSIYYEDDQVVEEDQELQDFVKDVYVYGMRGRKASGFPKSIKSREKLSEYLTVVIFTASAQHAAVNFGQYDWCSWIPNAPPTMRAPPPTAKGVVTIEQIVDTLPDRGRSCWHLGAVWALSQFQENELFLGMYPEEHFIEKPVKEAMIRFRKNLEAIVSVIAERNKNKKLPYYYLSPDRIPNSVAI
Description: inhibition of 5-HETE synthesis by rat glycogen elicited polymorphonuclear leukocytes. To be noted: rat PMN; for inhibition at 10 µM: negative = potentiation of 5-HETE synthesis, read-out: % Inhibition of 5-LO (as 5-HETE); for IC50: read-out: IC50 (inhibition of 5-LO, as 5-HETE). As for the experimental part: The assay of this Example measures the ability of the compounds of the invention to inhibit the synthesis of 5-HETE by rat glycogen elicited polymorphonuclear leukocytes.
as §1

With `C[C@H](C(=O)N(C)O)c1ccc2cc(OCc3nc4ccccc4s3)ccc2c1` [Example 41A, S-(+)-N-Hydroxy-α,N-dimethyl-6-(2-benzothiazolylmethoxy)-2-naphthaleneacetamide sodium salt hydrate], the “% Inhibition of LTB4” value on 5-lipoxygenase [1] (25 μM, human whole blood, sodium salt hydrate) turned out to be 89%. Also, the IC50 (as a rule, the point on the concentration scale where inhibition reaches its midpoint) at 5-lipoxygenase [1] (human whole blood, sodium salt hydrate) came to 12.2 µM.
Regarding `CC(C(=O)O)c1ccc2c(Br)c(OCc3ccc4ccccc4n3)ccc2c1` (stereo not drawn) [Example 19, α-Methyl-5-bromo-6-(2-quinolinylmethoxy)-2-naphthaleneacetic acid], the “% Inhibition of CO (as PGE2)” value in the assay with cyclooxygenase is on record as -21%. The inhibition (in general, the percentage by which the read-out fell short of the control) at 10 µM at 5-lipoxygenase [2] was 82%.
The molecule `C[C@H](C(=O)O)c1ccc2cc(OCc3csc(-c4ccccc4)n3)ccc2c1` [Example 35, S-(+)-α-Methyl-6-[(2-phenyl-4-thiazolyl)-methoxy]-2-naphthaleneaceticacid] yielded an inhibition at 25 µM against 5-lipoxygenase [1] (25 μM, human whole blood) of 28%.
On to `CC(C(=O)O)c1ccc2cc(OCc3ccc4ccc(Cl)cc4n3)ccc2c1` (stereo not drawn) [Example 18, α-Methyl-6-[(7-chloro-2-quinolinyl)-methoxy]-2-naphthaleneacetic acid], for which the IC50 with cyclooxygenase is more than 50 µM; at 5-lipoxygenase [2], 11.4 µM.
Consider `O=C(O)Cc1ccc2cc(OCc3ccc4ccccc4n3)ccc2c1` [Example 21, 6-(2-Ouinolinylmethoxy)-2-naphthaleneacetic Acid], for which the IC50 in the assay with cyclooxygenase was more than 250 µM. For the same molecule, the inhibition at 10 µM at 5-lipoxygenase [2] amounted to 95%.
With `CCCCCOc1ccc2cc(C(C)C(=O)O)ccc2c1` (stereo not drawn) [Example 12, α-Methyl-6-(pentyloxy)-2-naphthaleneacetic acid], in the assay with cyclooxygenase, the “% Inhibition of CO (as PGE2)” value is recorded as -13%. Also, the inhibition at 10 µM at 5-lipoxygenase [2] was determined as 48%.
Consider `CC(C(=O)O)c1ccc2cc(OCc3nc4ccccc4s3)ccc2c1` (stereo not drawn) [Example 5, α-Methyl-6-(2-benzothiazolylmethoxy)-2-naphthaleneacetic acid], for which the “% Inhibition of CO (as PGE2)” value in the assay on cyclooxygenase is -35%. Further, the inhibition at 10 µM at 5-lipoxygenase [2] stood at 90%.
Turning to `C[C@H](C(=O)O)c1ccc2cc(OCc3ccccn3)ccc2c1` [Example 42, S-(+)-α-Methyl-6-(2-pyridinylmethoxy)-2-naphthaleneacetic acid one tenth hydrate], the inhibition at 25 µM against 5-lipoxygenase [1] (25 μM, human whole blood) worked out at 11%.
On to `CC(C(=O)O)c1ccc2cc(OCc3csc(-c4ccccc4)n3)ccc2c1` (stereo not drawn) [Example 9, α-Methyl-6-[(2-phenyl-4-thiazolyl)methoxy]-2-naphthaleneacetic acid], for which the “% Inhibition of CO (as PGE2)” value in the assay on cyclooxygenase is recorded as -11%. Besides, at 5-lipoxygenase [2], the inhibition at 10 µM amounted to 86%.
For `CC(C)(C(=O)O)c1ccc2cc(OCc3ccc4ccccc4n3)ccc2c1` [Example 22, α,α-Dimethyl-6-(2-quinolinylmethoxy)-2-naphthaleneacetic acid], in the assay with cyclooxygenase, the “% Inhibition of CO (as PGE2)” value was -28%. Also, the inhibition at 10 µM at 5-lipoxygenase [2] came out at 87%.
For `C[C@H](C(=O)O)c1ccc2cc(OCc3nc4ccccc4o3)ccc2c1` [Example 46, S-(+)-α-methyl-6-(2-benzoxazolylmethoxy)-2-naphthaleneacetic acid], at 25 µM the inhibition against 5-lipoxygenase [1] (25 μM, human whole blood) was 22%.
On to `CC(C)c1ccc2c(c1)c(SC(C)(C)C)c(CC(C)(C)C(=O)O)n2Cc1ccc(Cl)cc1` [L-663,536, reference compound], for which, on 5-lipoxygenase [1] (3 μM, human whole blood), testing at 3 µM gave an inhibition of 96%.
On to `CC(C(=O)O)c1ccc2cc(OCC=Cc3ccccc3)ccc2c1` (stereo not drawn) [Example 20, α-Methyl-6-[(3-phenyl-2-propenyl)oxy]-2-naphthaleneacetic acid], for which the “% Inhibition of CO (as PGE2)” value with cyclooxygenase stood at 14%. In addition, the inhibition at 10 µM at 5-lipoxygenase [2] worked out at 89%.
In the case of `COC(=O)C(C)c1ccc2cc(OCc3ccc4ccccc4n3)ccc2c1` (stereo not drawn) [Example 28, α-Methyl-6-(2-quinolinylmethoxy)-2-naphthaleneacetic acid methyl ester], the figures for the IC50 with cyclooxygenase and at 5-lipoxygenase [2] were more than 10 µM and 0.43 µM, respectively.
Take `CC(C)(C(=O)O)c1ccc2cc(OCc3nc4ccccc4s3)ccc2c1` [Example 34, α,α-Dimethyl-6-(2-benzothiazolylmethoxy)-2-naphthaleneacetic acid]: testing at 25 µM against 5-lipoxygenase [1] (25 μM, human whole blood) gave an inhibition of 13%.
Still for that read-out and setting: in the case of `C[C@H](C(=O)O)c1ccc2cc(OCc3nc4ccccc4s3)ccc2c1` [Example 33, S-(+)-α-Methyl-6-(2-benzothiazolylmethoxy)-2-naphthaleneacetic acid] it was 54%.
For the molecule `CC(c1cc2ccccc2s1)N(O)C(N)=O` (stereo not drawn) [Example A-64077, reference compound], the inhibition at 5 µM at 5-lipoxygenase [1] (read-out: % Inhibition of LTB4) worked out at 72%.
For `C[C@H](C(=O)O)c1ccc2cc(OCc3nc4ccccc4n3C)ccc2c1` [Example 43, S-(α)α-Methyl-6-[(1-methyl-1H-benzimidazol-2-yl)-methoxy]-2-naphthaleneacetic acid], the inhibition at 25 µM on 5-lipoxygenase [1] (25 μM, human whole blood) stood at 12%.
`CC(C)(NC(=O)NO)c1ccc2cc(OCc3nc4ccccc4s3)ccc2c1` [Example 37, N-[1-[6-(2-Benzothiazolylmethoxy)-2-naphthalenyl]-1-methyethyl]-N'-hydroxyurea] displayed an inhibition at 25 µM against 5-lipoxygenase [1] (25 μM, human whole blood) of 43%. This molecule came in with an IC50 at 5-lipoxygenase [1] (human whole blood) of 50.8 µM.
